Assay results: patent publication US12661398B2, “Combination of a PD-1 antagonist, a VEGFR/FGFR/RET tyrosine kinase inhibitor and a CBP/beta-catenin inhibitor for treating cancer” (Eisai R&D Management Co., Ltd., priority 2019, dated 2026)

Tested on: mouse Renal cell carcinoma cell line RAG
Assay: Subcutaneous (s.c.) RAG transplantation model, anti-tumor effect of triple combination (Example 1)
Type: in vivo
Conditions: for CR rate: 28 days of administration
From the text: An Eagle's minimal essential medium (E-MEM) containing 10% fetal bovine serum (FBS) and penicillin/streptomycin (100 unit/mL each) was used to culture a mouse Renal cell carcinoma cell line RAG (ATCC number: CCL-142). Logarithmic growing cells were collected from flasks using Trypsin-EDTA. The suspension of cells was centrifuged to remove the supernatant. Next, Hanks' Balanced Salt Solution (HBSS) was used to prepare a cell suspension having a concentration of 2.5×10^7 cells/mL. The cell suspension was subcutaneously transplanted at a dose of 0.1 mL on the right lateral side of the body of each of 7-week-old mice (BALB/cAnNCrlCrlj, female, Charles River Laboratories Japan Inc.). Eight (8) days after the transplantation, an electronic digital caliper (Digimatic™ Caliper; Mitutoyo Corporation) was used to measure the short and long diameters of a tumor of interest. The following equations were used to calculate the tumor volume TV and RTV. Tumor Volume TV (mm^3)=Long Diameter (mm)×Short Diameter (mm)×Short Diameter (mm)/2 EQ. 1: Relative Tumor Volume RTV=TV on day n/TV on day1 EQ. 2:
Based on the tumor volumes on the first day of administration, grouping was carried out such that the average values of the tumor volumes were almost the same. A 1 mg/ml solution of lenvatinib was prepared using 3 mM HCl and was orally administered at a dose of 0.2 mL/20 g mouse body weight once daily for 28 days. 0.2 mL of an administration sample containing 1.0 mg/mL of an anti-mouse-PD-1 antibody (Clone: RMP1-14, BioXCell, Catalog #: BE0146), which had been diluted with PBS, was intraperitoneally administered (at a dosage of 200 μg/mouse) twice a week a total of 8 times (day 1, day 4, day 8, day 11, day 15, day 18, day 22, and day 25, with the day of the grouping set to day 1). A 2.5 mg/ml solution of E7386 was prepared using 0.1 M HCl and was orally administered at a dose of 0.2 mL/20 g mouse body weight once daily for 28 days. To the control group, nothing was administered. Each group including 8 mice was used to conduct the experiment. Twice a week (day 1, day 4, day 8, day 11, day 15, day 18, day 22, day 25, and day 29), the respective tumor volumes (TV) were determined for the control group, the lenvatinib administration group, the anti-mouse-PD-1 antibody administration group, lenvatinib+anti-mouse-PD-1 antibody administration group, E7386+lenvatinib administration group and triple combination group. The values obtained by logarithmically transforming the tumor volumes were used to carry out statistical analysis by repeated measured Dunnet's multiple comparison. E7386 is (6S,9aS)-N-benzyl-8-({6-[3-(4-ethylpiperazin-1-yl)azetidin-1-yl]pyridin-2-yl}methyl)-6-(2-fluoro-4-hydroxybenzyl)-4,7-dioxo-2-(prop-2-en-1-yl)hexahydro-2H-pyrazino[2,1-c][1,2,4]triazine-1(6H)-carboxamide.

[1] = Day 1 (day of grouping, first administration), BALB/c mice

SMILES | CR rate (BALB/c mice) | tumor volume (TV) [1] [mm^3] | tumor volume (TV) (Day 4, BALB/c mice) [mm^3] | tumor volume (TV) (Day 8, BALB/c mice) [mm^3] | tumor volume (TV) (Day 11, BALB/c mice) [mm^3] | tumor volume (TV) (Day 15, BALB/c mice) [mm^3] | tumor volume (TV) (Day 18, BALB/c mice) [mm^3] | tumor volume (TV) (Day 22, BALB/c mice) [mm^3] | tumor volume (TV) (Day 25, BALB/c mice) [mm^3] | tumor volume (TV) (Day 29, BALB/c mice) [mm^3]
C=CCN1CC(=O)N2[C@@H](Cc3ccc(O)cc3F)C(=O)N(Cc3cccc(N4CC(N5CCN(CC)CC5)C4)n3)C[C@@H]2N1C(=O)NCc1ccccc1 [E7386, (6S,9aS)-N-benzyl-8-({6-[3-(4-ethylpiperazin-1-yl)azetidin-1-yl]pyridin-2-yl}methyl)-6-(2-fluoro-4-hydroxybenzyl)-4,7-dioxo-2-(prop-2-en-1-yl)hexahydro-2H-pyrazino[2,1-c][1,2,4]triazine-1(6H)-carboxamide] | 1 out of 8 mice | 62 | 93 | 148 | 210 | 301 | 408 | 588 | 723 | 923
COc1cc2nccc(Oc3ccc(NC(=O)NC4CC4)c(Cl)c3)c2cc1C(N)=O [Lenvatinib, 4-[3-chloro-4-(cyclopropylaminocarbonyl)aminophenoxy]-7-methoxy-6-quinolinecarboxamide] | 0 out of 8 mice | 62 | 82 | 102 | 134 | 152 | 175 | 162 | 166 | 151
